Literature values as cited in patent US20130310903A1, “Anti-Depression Light-Wave Device and Usage Thereof” (priority 2012, published 2013).
Read-outs that look alike come from different tables or passages of the source.

Details: 12-week administration; for CGI outcome Worse: share of patients

In the case of `Fc1ccc([C@@H]2CCNC[C@H]2COc2ccc3c(c2)OCO3)cc1` [Paxil, Paroxetine], the “CGI outcome Minimally” value (20 mg) is given as 33%, the “CGI outcome Much Improved” value (20 mg) is given as 18% and the “CGI outcome No Change” value (20 mg) is given as 35%. For the same compound, the “CGI outcome Very Much” value (20 mg) was 7%, the “CGI outcome Worse” value (20 mg) was 7% and the “CGI outcome Minimally” value (40 mg) was 29%. For the same compound, the “CGI outcome Much Improved” value (40 mg) was 22%, the “CGI outcome No Change” value (40 mg) was 22% and the “CGI outcome Very Much” value (40 mg) was 20%. The “CGI outcome Worse” value (40 mg) was 7%, the “CGI outcome Minimally” value (60 mg) was 34% and the “CGI outcome Much Improved” value (60 mg) was 24%. The “CGI outcome No Change” value (60 mg) was 19%, the “CGI outcome Very Much” value (60 mg) was 20% and the “CGI outcome Worse” value (60 mg) was 3%.
